Consider 41 compounds from US5677322A, “Maillard reaction inhibitor” (Otsuka Pharmaceutical Co., Ltd., priority 1993, dated 1997).

In this assay the test system is Lysozyme. The assay can be described thus: Inhibition of Maillard reaction: suppression of lysozyme dimer formation (lysozyme + fructose, SDS-PAGE). The settings on record: inhibition ratio of test compound to aminoguanidine (positive control); lysozyme 10 mg/ml, fructose 100 mM, 0.2M sodium phosphate pH 7.4, 37° C., 3 days; dimer amount by SDS-PAGE. Type of assay: biochemical. Here is the method: Lysozyme and fructose were dissolved in a buffer solution of 0.2M sodium phosphate (pH 7.4) to respectively give concentrations of 10 mg/ml and 100 mM. After incubating at 37° C. for 3 days, a definite amount of the mixture was taken out and electrophoresed with the use of SDS-PAGE. After the completion of the electrophoresis, the gel was stained with 0.2% Coomassie Brilliant Blue R-250 and the amount of the dimer thus formed was determined.
Each of the test compounds was added before the initiation of the incubation and the effect of suppressing the formation of the dimer was examined at various concentrations, whereby the IC50 value was obtained. As a positive control, aminoguanidine, which is a known glycation inhibitor, was employed and the inhibition ratio of the test compound to aminoguanidine (IC50 of aminoguanidine/IC50 of test compound) was calculated.
Turning to `CC(C)=NN=C1NC(=O)C(CC(=O)O)N1` (centres unmarked) [Test compound 45, 5-Carboxymethyl-2-isopropylidenehydrazonoimidazolidin-4-one], the “IC50 of aminoguanidine/IC50 of test compound” value (from here on “IC50”) is reported as 4.8.

Turning to “5-(4-Benzyloxybenzyl)-2-isopropylidenehydrazonothiazolidin-4-one [Test compound 12]”, the “IC50” value turned out to be 4.4.

For `CC(C)=NN=C1NC(=O)C(Cc2ccc(Sc3ccccc3)cc2)N1` (centres unmarked) [Test compound 10, 2-Isopropylidenehydrazono-5-(4-phenylthiobenzyl)imidazolidin-4-one], the “IC50” value amounted to 5.4.

Take “5-[N-(5-carboxy-2-methylphenyl)carbamoylmethyl]-2-isopropylidenehydrazonothiazolidin-4-one [Test compound 91]”: the “IC50” value was 1.6.

`CC(C)=NN=C1NC(=O)C(CC(=O)NC(C)c2ccccc2)N1` (centres unmarked) [Test compound 73, 2-Isopropylidenehydrazono-5-[N-(1-phenylethyl)carbamoylmethyl]imidazolidin-4-one]: the “IC50” value stood at 1.3.

For `CC(C)=NN=C1NC(=O)C(c2ccc(O)cc2)N1` (centres unmarked) [Test compound 7, 5-(4-Hydroxyphenyl)-2-isopropylidenehydrazonoimidazolidin-4-one], the “IC50” value amounted to 1.1.

On to “5-[N-(2-carboxy-4-methylphenyl)carbamoylmethyl]-2-isopropylidenehydrazonothiazolidin-4-one [Test compound 54]”, for which the “IC50” value was found to be 4.2.

As for `COC(=O)c1ccccc1NC(=O)CC1SC(=NN=C(C)C)NC1=O` (centres unmarked) [Test compound 93, 2-Isopropylidenehydrazono-5-[N-(2-methoxycarbonylphenyl)carbamoylmethyl]thiazolidin-4-one], the “IC50” value stood at 26.

`CC(C)=NN=C1NC(=O)C(CC(=O)NCc2ccccc2)S1` (centres unmarked) [Test compound 30, 5-(N-Benzylcarbamoylmethyl)-2-isopropylidenehydrazonothiazolidin-4-one]: the “IC50” value is on record as 3.5.

Consider `CC(C)=NN=C1NC(=O)C(Cc2ccccc2)N1` (centres unmarked) [Test compound 3, 5-Benzyl-2-isopropylidenehydrazonoimidazolidin-4-one], for which the “IC50” value is reported as 1.6.

For the compound “5-[N-(1-ethoxycarbonyl-3-methylbutyl)carbamoylmethyl]-2-isopropylidenehydrazonothiazolidin-4-one [Test compound 97]”, the “IC50” value is 2.3.

For the compound “2-Isopropylidenehydrazono-5-[N-(1-naphthyl)carbamoylmethyl]thiazolidin-4-one [Test compound 59]”, the “IC50” value is recorded as 0.8.

As for “2-Isopropylidenehydrazono-5-(N-morpholinocarbamoylmethyl)thiazolidin-4-one [Test compound 69]”, the “IC50” value turned out to be 1.1.

On to `CC(C)=NN=C1NC(=O)C(CC(=O)N(C)c2ccccc2)S1` (centres unmarked) [Test compound 65, 2-Isopropylidenehydrazono-5-(N-methyl-N-phenylcarbamoylmethyl)thiazolidin-4-one], for which the “IC50” value is 6.8.

Consider “5-[N-(3-ethoxycarbonylphenyl)carbamoylmethyl]-2-isopropylidenehydrazonothiazolidin-4-one [Test compound 105]”, for which the “IC50” value came to 4.2.

As for `CC(C)=NN=C1NC(=O)C(C(C)C)N1` (centres unmarked) [compound 79], the “IC50” value was 1.5.

As to “2-Isopropylidenehydrazino-4-(3-pyridyl)thiazole [Test compound 89]”, the “IC50” value turned out to be 53.

Take “5-[N-(2-carboxymethylphenyl)carbamoylmethyl]-2-isopropylidenehydrazonothiazolidin-4-one [Test compound 108]”: the “IC50” value was 3.2.

As for `CCOC(=O)CN1C(=O)C(CC(=O)Nc2ccccc2)SC1=NN=C(C)C` (centres unmarked) [Test compound 61, 3-Ethoxycarbonylmethyl-5-(N-phenylcarbamoylmethyl)-2-isopropylidenehydrazonothiazolin-4-one], the “IC50” value is 0.91.

As to “5-[N-(4-bromophenyl)carbamoylmethyl]-2-isopropylidenehydrazonothiazolidin- 4-one [Test compound 56]”, the “IC50” value is 10.2.

With `CC(C)=NN=C1NC(=O)C(CCC(=O)Nc2ccccc2)N1` (centres unmarked) [Test compound 80, 2-Isopropylidenehydrazono-5-[2-(N-phenylcarbamoyl)ethyl]imidazolidin-4-one], the “IC50” value is on record as 3.1.

Regarding `COc1ccc(NC(=O)CC2SC(=NN=C(C)C)NC2=O)c(C)c1` (centres unmarked) [Test compound 116, 2-Isopropylidenehydrazono-5-[N-(4-methoxy-2-methylphenyl)carbamoylmethyl]thiazolidin-4-one], the “IC50” value stood at 7.3.

In the case of “5-(N-carboxymethylcarbamoylmethyl)-2-isopropylidenehydrazonothiazolidin-4- one [Test compound 47]”, the “IC50” value worked out at 1.7.

As for `CC(C)=NN=C1NC(=O)C(CC(=O)NCc2cccs2)S1` (centres unmarked) [Test compound 70, 2-isopropylidenehydrazono-5-[N-(2-thienylmethyl)carbamoylmethyl]thiazolidin-4-one], the “IC50” value came to 36.

For the compound `CC(C)=NN=C1NC(=O)C(Cc2ccc(OCc3ccc(Cl)cc3)cc2)N1` (centres unmarked) [Test compound 6, 5-[4-(4-Chlorobenzyloxy)benzyl]-2-isopropylidenehydrazonoimidazolidin-4-one], the “IC50” value was determined as 8.3.

Turning to `COc1ccc(NC(=O)CC2SC(=NN=C(C)C)NC2=O)cc1OC` (centres unmarked) [Test compound 90, 5-[N-(3,4-dimethoxyphenyl)carbamoylmethyl]-2-isopropylidenehydrazonothiazolidin-4-one], the “IC50” value amounted to 42.

For `CCOC(=O)c1ccc(NC(=O)CC2SC(=NN=C(C)C)NC2=O)cc1` (centres unmarked) [Test compound 15, 5-[N-(4-ethoxycarbonylphenyl)carbamoylmethyl]-2-isopropylidenehydrazonothiazolidin-4-one], the “IC50” value was 1.2.

For `CC(C)=NN=C1NC(=O)C(CC(=O)Nc2ccc(F)cc2C(=O)O)S1` (centres unmarked) [Test compound 117, 5-[N-(2-carboxy-4-fluorophenyl)carbamoylmethyl]-2-isopropylidenehydrazonothiazolidin-4-one], the “IC50” value stood at 7.0.

`O=C1NC(=NNS(=O)(=O)c2ccc(Br)cc2)NC1Cc1ccc(OCc2ccccc2)cc1` (centres unmarked) [Test compound 75]: the “IC50” value is 1.5.

As for `CSc1ccc(CC2SC(=NN=C(C)C)NC2=O)cc1` (centres unmarked) [Test compound 11, 2-isopropylidenehydrazono-5-(4-methylthiobenzyl)thiazolidin-4-one], the “IC50” value came to 1.2.

As for “5-(N-isopropylcarbamoylmethyl)-2-isopropylidenehydrazonothiazolidin-4-one [Test compound 31]”, the “IC50” value is reported as 0.6.

As to `CC(C)=NN=C1NC(=O)C(CC(C)C)N1` (centres unmarked) [Test compound 67, 2-Isopropylidenehydrazono-5-(2-methylpropyl)imidazolidin-4-one], the “IC50” value is on record as 2.6.

With “5-[N-(1-carboxy-3-methylbutyl)carbamoylmethyl]-2-isopropylidenehydrazonothiazolidin-4-one [Test compound 103]”, the “IC50” value is 1.7.

Take `CC(C)=NN=C1NC(=O)C(CC(=O)N[C@@H](Cc2c[nH]c3ccccc23)C(=O)O)S1` (some centres unmarked) [Test compound 104, 5-{N-[1-carboxy-2-(3-indolyl)ethyl]carbamoylmethyl}-2-isopropylidenehydrazonothiazolidin-4-one]: the “IC50” value is recorded as 0.7.

For the compound “2-Isopropylidenehydrazino-4-methylthiazole [Test compound 23]”, the “IC50” value turned out to be 3.5.

With `COc1ccc(NC(=O)Cc2csc(NN=C(C)C)n2)cc1OC` [Test compound 94, 4-[N-(3,4-dimethoxyphenyl)carbamoylmethyl]-2-isopropylidenehydrazinothiazole], the “IC50” value came out at 33.7.

With “5-{N-[1-carboxy-2-(4-benzyloxyphenyl)ethyl]carbamoylmethyl}-2-isopropylidenehydrazonothiazolidin-4-one [Test compound 101]”, the “IC50” value worked out at 1.5.

For `CC(C)=NN=C1NC(=O)C(CC(=O)NC2CCCCC2)S1` (centres unmarked) [Test compound 18, 5-(N-cyclohexylcarbamoylmethyl)-2-isopropylidenehydrazonothiazolidin-4-one], the “IC50” value is on record as 1.5.

Take “2-(4-Acetoamidobenzenesulfonohydrazono)-5-(4-benzyloxybenzyl)imidazolidin- 4-one [Test compound 76]”: the “IC50” value came out at 7.9.

As for `CC(C)=NN=C1NC(=O)C(Cc2ccc(O)cc2)N1` (centres unmarked) [Test compound 4, 5-(4-Hydroxybenzyl)-2-isopropylidenehydrazonoimidazolidin-4-one], the “IC50” value is reported as 4.8.

As for `COC(=O)c1c(F)cccc1NC(=O)CC1SC(=NN=C(C)C)NC1=O` (centres unmarked) [Test compound 118, 5-[N-(3-fluoro-2-methoxycarbonylphenyl)carbamoylmethyl]-2-isopropylidenehydrazonothiazolidin-4-one], the “IC50” value came out at 6.1.
